Measurements reported in US8772480B2, “Inhibitors of PI3 kinase and/or mTOR” (priority 2009, dated 2014).

What was measured:
[1] = tested on: phosphorylation of Akt at Serine 473 in U87 MG cells; experiment: cells; conditions: Homo sapiens, U-87 MG, 2 h, read-out: U87Cell IC50, pAkt (Ser 473), U87 MG cells, two hours with compound
PI3Kα = PI3Kα (Homo sapiens (Human), UniProt P42336); conditions: read-out: PI3Kα AlphaScreen ® Ki
PI3Kα, sequence (P42336 whole entry): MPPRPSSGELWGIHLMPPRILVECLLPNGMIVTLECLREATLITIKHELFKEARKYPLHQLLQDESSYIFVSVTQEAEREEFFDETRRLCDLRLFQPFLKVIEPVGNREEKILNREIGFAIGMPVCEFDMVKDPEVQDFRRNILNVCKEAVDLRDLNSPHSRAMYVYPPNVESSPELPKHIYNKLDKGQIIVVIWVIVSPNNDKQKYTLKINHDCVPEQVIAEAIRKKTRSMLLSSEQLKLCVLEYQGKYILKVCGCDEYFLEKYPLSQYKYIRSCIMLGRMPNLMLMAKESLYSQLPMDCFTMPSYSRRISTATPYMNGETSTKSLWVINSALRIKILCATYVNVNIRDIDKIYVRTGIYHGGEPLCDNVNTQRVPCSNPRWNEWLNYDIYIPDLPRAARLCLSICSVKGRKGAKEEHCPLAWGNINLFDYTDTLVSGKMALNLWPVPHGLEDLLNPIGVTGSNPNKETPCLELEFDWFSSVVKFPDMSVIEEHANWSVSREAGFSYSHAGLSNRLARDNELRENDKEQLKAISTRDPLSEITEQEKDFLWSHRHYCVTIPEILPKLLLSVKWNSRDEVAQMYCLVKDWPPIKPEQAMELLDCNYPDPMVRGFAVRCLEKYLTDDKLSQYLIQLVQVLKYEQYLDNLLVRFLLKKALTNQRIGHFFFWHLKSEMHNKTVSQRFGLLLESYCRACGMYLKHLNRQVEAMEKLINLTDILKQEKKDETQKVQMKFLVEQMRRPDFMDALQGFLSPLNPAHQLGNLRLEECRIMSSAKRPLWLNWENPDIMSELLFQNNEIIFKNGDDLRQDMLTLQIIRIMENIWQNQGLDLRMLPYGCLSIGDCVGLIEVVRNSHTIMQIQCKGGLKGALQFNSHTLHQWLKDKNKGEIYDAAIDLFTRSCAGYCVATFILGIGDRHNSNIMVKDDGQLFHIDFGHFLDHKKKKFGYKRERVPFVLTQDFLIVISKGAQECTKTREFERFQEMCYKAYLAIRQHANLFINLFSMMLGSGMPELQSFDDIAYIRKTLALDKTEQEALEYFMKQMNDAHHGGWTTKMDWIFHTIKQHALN
PI3Kα, sequence (P27986 whole entry partner): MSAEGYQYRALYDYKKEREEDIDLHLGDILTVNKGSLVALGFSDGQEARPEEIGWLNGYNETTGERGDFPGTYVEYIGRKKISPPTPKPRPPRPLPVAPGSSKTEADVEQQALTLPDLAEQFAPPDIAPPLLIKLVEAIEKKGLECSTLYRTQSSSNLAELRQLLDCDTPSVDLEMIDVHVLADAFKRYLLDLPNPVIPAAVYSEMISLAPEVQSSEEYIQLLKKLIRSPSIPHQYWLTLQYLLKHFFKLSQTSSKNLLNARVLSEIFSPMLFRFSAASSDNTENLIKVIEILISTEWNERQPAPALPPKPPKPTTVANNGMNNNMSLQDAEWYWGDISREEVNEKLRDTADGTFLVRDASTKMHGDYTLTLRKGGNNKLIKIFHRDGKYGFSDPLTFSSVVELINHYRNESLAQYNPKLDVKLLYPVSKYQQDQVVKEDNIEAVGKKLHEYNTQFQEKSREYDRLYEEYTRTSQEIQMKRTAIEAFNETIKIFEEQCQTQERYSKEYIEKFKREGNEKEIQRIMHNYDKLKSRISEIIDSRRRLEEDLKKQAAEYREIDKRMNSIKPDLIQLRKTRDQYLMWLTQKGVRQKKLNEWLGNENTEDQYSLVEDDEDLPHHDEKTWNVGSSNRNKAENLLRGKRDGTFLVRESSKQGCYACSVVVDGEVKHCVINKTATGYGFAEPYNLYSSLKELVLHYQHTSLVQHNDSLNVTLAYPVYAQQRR

Structure (SMILES) | IC50 [1] [nM] | Ki (PI3Kα) [nM]
COc1ccc(Nc2nc(-c3ccc(F)cc3)ncc2-c2nc(C)nc(N)n2)cn1 [Example 125, 4-(2-(4-fluorophenyl)-4-(6-methoxypyridin-3-ylamino)pyrimidin-5-yl)-6-methyl-1,3,5-triazin-2-amine] | > 10000 | 504
Cc1nc(N)nc(-c2cc(CN3CCN(S(C)(=O)=O)CC3)cnc2Nc2ccc3ocnc3c2)n1 [Example 128, N-(3-(4-amino-6-methyl-1,3,5-triazin-2-yl)-5-((4-(methylsulfonyl)piperazin-1-yl)methyl)pyridin-2-yl)benzo[d]oxazol-5-amine] | 21 | 7
Cc1nc(N)nc(-c2cc(CN3CCOCC3)cnc2Nc2ccc3scnc3c2)n1 [Example 129, N-(3-(4-amino-6-methyl-1,3,5-triazin-2-yl)-5-(morpholinomethyl)pyridin-2-yl)benzo[d]thiazol-5-amine] | 83 | 100
COc1ncc(Nc2ncc(CN3CCOCC3)cc2-c2nc(C)nc(N)n2)cc1F [Example 130, 4-(2-(5-fluoro-6-methoxypyridin-3-ylamino)-5-(morpholinomethyl)pyridin-3-yl)-6-methyl-1,3,5-triazin-2-amine] | 14 | 20
COc1ccc(Nc2ncc(CNC(C)(C)C)cc2-c2nc(C)nc3[nH]cnc23)cn1 [Example 134, 5-((tert-butylamino)methyl)-N-(6-methoxypyridin-3-yl)-3-(2-methyl-9H-purin-6-yl)pyridin-2-amine] | 1250 | 217
COc1ccc(Nc2ncc(CNC(C)C)cc2-c2nc(C)nc3[nH]cnc23)cn1 [Example 135, 5-((isopropylamino)methyl)-N-(6-methoxypyridin-3-yl)-3-(2-methyl-9H-purin-6-yl)pyridin-2-amine] | 435 | 120
COc1ccc(Nc2ncc(CNCc3ccccn3)cc2-c2nc(C)nc3[nH]cnc23)cn1 [Example 136, N-(6-methoxypyridin-3-yl)-3-(2-methyl-9H-purin-6-yl)-5-((pyridin-2-ylmethylamino)methyl)pyridin-2-amine] | 124 | 54
COc1ccc(Nc2ncc(CNCc3ccncc3)cc2-c2nc(C)nc3[nH]cnc23)cn1 [Example 137, N-(6-methoxypyridin-3-yl)-3-(2-methyl-9H-purin-6-yl)-5-((pyridin-4-ylmethylamino)methyl)pyridin-2-amine] | 181 | 40
COc1ccc(Nc2ncc(CNCc3cccnc3)cc2-c2nc(C)nc3[nH]cnc23)cn1 [Example 138, N-(6-methoxypyridin-3-yl)-3-(2-methyl-9H-purin-6-yl)-5-((pyridin-3-ylmethylamino)methyl)pyridin-2-amine] | 172 | 48
COc1ccc(Nc2ncc(C(O)c3ccc(S(C)(=O)=O)cc3)cc2-c2nc(C)nc3[nH]cnc23)cn1 (centres unmarked) [Example 139, (6-(6-methoxypyridin-3-ylamino)-5-(2-methyl-9H-purin-6-yl)pyridin-3-yl)(4-(methylsulfonyl)phenyl)methanol] | 185 | 5
COc1ccc(Nc2ncc(C(C)N3CCN(S(C)(=O)=O)CC3)cc2-c2nc(C)nc3[nH]cnc23)cn1 (centres unmarked) [Example 140, N-(6-methoxypyridin-3-yl)-3-(2-methyl-9H-purin-6-yl)-5-(1-(4-(methylsulfonyl)piperazin-1-yl)ethyl)pyridin-2-amine] | 34 | 6
COc1ncc(Nc2ncc(Cc3ccc(S(C)(=O)=O)cc3)cc2-c2nc(C)nc(N)n2)cc1F [Example 142, 4-(2-(5-fluoro-6-methoxypyridin-3-ylamino)-5-(4-(methylsulfonyl)benzyl)pyridin-3-yl)-6-methyl-1,3,5-triazin-2-amine] | 6 | 2
COc1ccc(Nc2ncc(C(C)N3CCN(S(C)(=O)=O)CC3)cc2-c2nc(C)nc(N)n2)cn1 (centres unmarked) [Example 144, 4-(2-(6-Methoxypyridin-3-Ylamino)-5-(1-(4-(Methylsulfonyl)Piperazin-1-yl)Ethyl)Pyridin-3-yl)-6-Methyl-1,3,5-Triazin-2-Amine] | 26 | 7
